Results as given in ChEMBL document CHEMBL6103540, “Recent Progress and Future Perspectives on Anti-Hyperuricemic Agents” (J Med Chem, 2024).
pIC50: −log10 of the molar value.

Columns and labels:
[1] = biological target: T1, Xanthine dehydrogenase/oxidase (Homo sapiens, UniProt P47989); test: Inhibition of XOR (unknown origin)
[2] = biological target: T2, Solute carrier family 22 member 12 (Homo sapiens, UniProt Q96S37); test: Inhibition of human URAT1 expressed in HEK293T cells by assessed as 14C-uric acid uptake preincubated for 5 mins followed by 14C-uric acid addition and measured after 10 mins by liquid scintillation counting method; type: cell-based
T2 sequence (Q96S37 whole entry): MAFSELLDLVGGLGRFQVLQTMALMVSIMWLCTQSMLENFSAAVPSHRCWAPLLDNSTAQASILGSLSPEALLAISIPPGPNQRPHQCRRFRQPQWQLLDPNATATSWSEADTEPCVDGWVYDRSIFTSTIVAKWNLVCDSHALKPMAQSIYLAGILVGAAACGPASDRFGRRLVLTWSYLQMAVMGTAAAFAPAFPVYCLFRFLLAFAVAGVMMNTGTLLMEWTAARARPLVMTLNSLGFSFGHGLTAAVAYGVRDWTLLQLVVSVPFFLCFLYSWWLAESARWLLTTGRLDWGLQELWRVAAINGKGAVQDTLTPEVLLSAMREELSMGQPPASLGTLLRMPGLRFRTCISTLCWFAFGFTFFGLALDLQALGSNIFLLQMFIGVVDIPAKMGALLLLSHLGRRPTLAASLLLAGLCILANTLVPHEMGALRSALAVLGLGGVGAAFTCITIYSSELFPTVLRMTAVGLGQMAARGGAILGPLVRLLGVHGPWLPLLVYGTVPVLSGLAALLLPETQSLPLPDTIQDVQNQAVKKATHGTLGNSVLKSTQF

[3] = biological target: T1, Xanthine dehydrogenase/oxidase; test: Inhibition of Xanthine oxidase (unknown origin)
[4] = biological target: T2, Solute carrier family 22 member 12; test: Inhibition of URAT1 (unknown origin)
[5] = biological target: T2, Solute carrier family 22 member 12; test: Inhibition of human URAT1 stably expressed in HEK293 cells by measuring 14C-uric acid uptake pre-incubated for 15 mins followed by 14C-uric acid addition and measured for 30 mins by liquid scintillation counter analysis; type: cell-based
[6] = biological target: T2, Solute carrier family 22 member 12; test: Inhibition of human URAT1 stably expressed in HEK293T cells; type: cell-based
[7] = biological target: T2, Solute carrier family 22 member 12; test: Inhibition of URAT1 (unknown origin) expressed in human HK-2 cells at 10 uM relative to control; type: cell-based; conditions: HK-2, human
[8] = biological target: T1, Xanthine dehydrogenase/oxidase; test: Inhibition of xanthine oxidase (unknown origin) by absorbance based assay
[9] = biological target: T3, Solute carrier family 2, facilitated glucose transporter member 9 (Homo sapiens, UniProt Q9NRM0); test: Inhibition of GLUT9 (unknown origin)
T3 sequence (Q9NRM0 whole entry): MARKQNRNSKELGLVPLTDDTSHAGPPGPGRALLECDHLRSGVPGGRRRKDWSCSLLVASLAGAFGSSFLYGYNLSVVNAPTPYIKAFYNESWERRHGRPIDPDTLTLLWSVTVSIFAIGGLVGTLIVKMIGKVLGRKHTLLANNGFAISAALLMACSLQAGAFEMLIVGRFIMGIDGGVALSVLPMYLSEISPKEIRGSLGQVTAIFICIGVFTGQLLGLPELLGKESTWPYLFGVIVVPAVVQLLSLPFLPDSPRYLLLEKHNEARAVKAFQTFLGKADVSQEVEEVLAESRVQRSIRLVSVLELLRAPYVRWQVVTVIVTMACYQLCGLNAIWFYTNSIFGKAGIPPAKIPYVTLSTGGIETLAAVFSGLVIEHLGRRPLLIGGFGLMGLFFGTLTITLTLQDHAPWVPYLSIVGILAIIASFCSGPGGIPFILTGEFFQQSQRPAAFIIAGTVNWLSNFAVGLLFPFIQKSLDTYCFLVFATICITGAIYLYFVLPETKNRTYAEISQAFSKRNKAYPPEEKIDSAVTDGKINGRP

T1 sequence (P47989 whole entry): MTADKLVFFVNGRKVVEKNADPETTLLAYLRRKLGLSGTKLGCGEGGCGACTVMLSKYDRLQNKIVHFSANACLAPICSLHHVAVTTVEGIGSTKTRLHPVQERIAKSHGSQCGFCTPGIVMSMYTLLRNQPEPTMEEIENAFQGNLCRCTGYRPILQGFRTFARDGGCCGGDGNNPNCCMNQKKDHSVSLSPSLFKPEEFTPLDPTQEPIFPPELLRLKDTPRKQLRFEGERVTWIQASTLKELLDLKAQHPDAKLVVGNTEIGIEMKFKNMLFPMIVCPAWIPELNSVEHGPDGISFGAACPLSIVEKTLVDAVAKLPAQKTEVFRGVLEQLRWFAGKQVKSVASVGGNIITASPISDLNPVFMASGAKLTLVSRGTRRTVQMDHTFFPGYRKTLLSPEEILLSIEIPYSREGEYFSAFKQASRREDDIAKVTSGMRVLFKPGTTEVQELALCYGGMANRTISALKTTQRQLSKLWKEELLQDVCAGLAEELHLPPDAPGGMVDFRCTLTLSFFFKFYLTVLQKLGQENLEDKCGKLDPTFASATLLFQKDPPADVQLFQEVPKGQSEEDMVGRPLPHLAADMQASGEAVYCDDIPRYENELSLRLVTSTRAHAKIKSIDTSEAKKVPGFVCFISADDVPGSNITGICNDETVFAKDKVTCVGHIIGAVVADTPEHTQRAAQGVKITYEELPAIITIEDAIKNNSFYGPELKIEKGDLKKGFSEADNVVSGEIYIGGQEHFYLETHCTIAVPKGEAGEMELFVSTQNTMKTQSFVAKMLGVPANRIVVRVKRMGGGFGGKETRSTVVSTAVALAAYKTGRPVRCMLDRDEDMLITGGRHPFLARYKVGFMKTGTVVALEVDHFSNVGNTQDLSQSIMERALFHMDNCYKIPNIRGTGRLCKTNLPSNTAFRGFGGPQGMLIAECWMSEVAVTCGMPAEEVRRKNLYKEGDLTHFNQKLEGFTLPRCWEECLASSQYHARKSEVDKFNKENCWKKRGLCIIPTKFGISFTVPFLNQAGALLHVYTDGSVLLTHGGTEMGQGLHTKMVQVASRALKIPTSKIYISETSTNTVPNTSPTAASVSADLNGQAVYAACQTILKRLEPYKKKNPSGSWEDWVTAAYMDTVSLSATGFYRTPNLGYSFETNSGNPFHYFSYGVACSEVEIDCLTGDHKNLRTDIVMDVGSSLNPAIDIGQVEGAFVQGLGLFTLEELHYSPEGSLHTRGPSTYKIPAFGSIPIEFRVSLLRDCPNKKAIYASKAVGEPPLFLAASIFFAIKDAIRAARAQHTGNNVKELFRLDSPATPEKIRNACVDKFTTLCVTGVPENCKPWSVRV

| SMILES | pIC50 [3] | pIC50 [4] | also measured |
| --- | --- | --- | --- |
| O=C(/C=C/c1ccc(O)c2oc(-c3ccc(O)c(O)c3)cc12)O[C@H](Cc1ccc(O)c(O)c1)C(=O)O |  |  | pIC50 [1]: 5.01 |
| O=C(O)C1(Sc2ccccc2N2CCOc3ccc(Br)cc32)CCC1 |  |  | pIC50 [2]: 5.77 |
| CCCc1ccc(Cn2c(Br)nnc2SCC(=O)O)c2ccccc12 |  |  | pIC50 [5]: 7.04 |
| CCn1c(=O)sc2cc(-c3ccc(C(=O)O)c(O)c3)ccc21 | 7.92 | 4.52 |  |
| N#Cc1cc(-n2cnc(C(=O)O)c2)ccc1N1CCCCCC1 |  |  | pIC50 [6]: 4.97 |
| O=c1c2cc(O)c(O)cc2oc2cc(OCc3ccccc3)cc(O)c12 | 5.48 |  |  |
| COc1cc2c3c(c1OS(=O)(=O)c1ccc(F)cc1)-c1ccccc1C[C@H]3N(C)CC2 |  |  | inhibition at 10 µM [7]: 61% |
| COc1ccc(C2CC(=O)c3c(O)cc(O)cc3O2)cc1O (configuration not stated) |  |  | pIC50 [8]: 6.08 |
| Cc1nc(-c2ccc(OCC(C)C)c(C#N)c2)sc1C(=O)O [FEBUXOSTAT] | 8.00 |  |  |
| CC(C)=CCc1c(O)ccc2c1O[C@H](c1ccc(O)cc1)CC2=O [ISOBAVACHIN] | 4.84 | 6.62 | pIC50 [9]: 5.95 |
| N#Cc1cc(-c2n[nH]c(-c3ccncc3)n2)ccn1 [TOPIROXOSTAT] |  |  | pIC50 [1]: 7.82 |

Now from value to molecule, other results behind:

| pIC50 [3] | pIC50 [4] | SMILES | also measured |
| --- | --- | --- | --- |
| 5.48 | 6.84 | O/N=C(\Cc1ccc(Br)cc1)c1ccc(O)cc1O |  |
|  | 7.28 | O=C(O)C1(Sc2ccnc3ccc(Br)cc23)CCC1 [SHR-4640] |  |
